# In patent US12606773B2, “Ionizable cationic lipids” (Akagera Medicines, Inc., priority 2020, dated 2026):
# Legend:
# [1] = LNP particle size and polydispersity (ZetaSizer); format: physicochemical; conditions: for Particle Size (nm): mCherry mRNA LNP, 50 mol % ICL, N/P 5, DSPC 10, cholesterol 38.5, PEG-DMG 1.5 mol %; for Particle Size (nm) Post-Freeze/Thaw / Polydispersity Index PDI: same LNPs; for Particle Size (nm) Post-Freeze/Thaw: Table 4, post freeze/thaw
# Experimental: (§1) • 5. The number of wells used on each plate was counted and 4 was added to this number. For plate B, PBS was prepared with Ribogreen diluted 1:100. For example, for 40 wells, 44 was used as the number. 44×60 μL=2.64 mL Ribogreen solution needed, so that would be 2.61 mL PBS with 26.4 μL Ribogreen. • 6. For plate C, 2.61 mL Dissociation buffer and 26.4 uL Ribogreen was pipetted. • 7. Using a repeater pipette set for 60 μL, PBS+RiboGreen was added to each well on plate B and 60 μL Dissociation Buffer+Ribogreen to plate C. Both plates B and C were mixed on an orbital mixer (120 rpm) for 1 min. Plate B was placed in the dark for 15 min. Plate C was incubated at 37° C. in the dark for 10 min, followed by 5 min at RT. • 8. Both plates were read one after the other, using Ex. 465, Em. 530 nm • 9. Using the standard curve, the slope and intercept were calculated and by extrapolation the mRNA concentrations of the samples on plate B & C were calculated (average and std.dev) • 10. Percent encapsulation efficiency (% EE) by [mRNA] plate B/[mRNA] plate C×100 was calculated • 11. Total [mRNA] by taking [mRNA] plate C×dilution factor was calculated. B. LNP Particle Size • 1. […] C. LNP Zeta Potential • 1.
# [2] = LNP zeta potential (ZetaSizer Pro); format: physicochemical; conditions: same LNPs; for Zeta Potential mV, pH 5: Table 4, pH 5; for Zeta Potential mV, pH 7: Table 4, pH 7
# [3] = mRNA encapsulation efficiency by Ribogreen fluorescent binding dye; format: physicochemical; conditions: same LNPs; for Encapsulation Efficiency (%): Table 4; for % Encapsulation ± SD: Table 3
# Experimental: A. mRNA Concentration and Relative Encapsulation Efficiency Determination by Fluorescent Binding Dye
# • Materials: Ribogreen reagent (Thermo #11491), 3×96-well plates with lids, PBS, dissociation buffer (PBS with 10% DMSO and 1% (wt/wt) Zwittergent 3-14 (Sigma-Aldrich #693017), mRNA, general pipette tips & repeater pipette tips. • 1. 5 mL of 2 μg/mL mRNA stock were prepared in DPBS or PBS • 2. Diluted standards were prepared as follows in single wells in a 96-well plate (Plate A);
# • 3. Using different wells in Plate A, samples were diluted to be within the standard curve, you'll need one well per sample. For example, if the approximate mRNA concentration should be ˜30 ug/mL in the sample, a 20× dilution was performed (Dilution Factor). (20 uL sample added to 380 μL PBS in a well). No lid was used on plate A. Samples were mixed by gentle pipetting up & down.
# • 4. Two more plates, plates B & C were used. Using a multichannel pipettor, 60 μL of each standard 2 were pipetted into wells each (duplicate), and sample into 3 wells each (triplicate)
# as §1
# [4] = Accelerated oxidation with H2O2/Fe(III)Cl, main lipid peak by UHPLC-CAD; format: physicochemical; conditions: for % of parent lipid peak at time 0, 24 h / % of parent lipid peak at time 0, 48 h / % of parent lipid peak at time 0, 72 h: 1% H2O2, 100 μM Fe(III)Cl, 37° C.; for stability under accelerated oxidation with hydrogen peroxide: compared to counterparts with a single methylene separating the two olefins
# Experimental: Individual lipid stocks (10 mM) were prepared in ethanol and stored at −20° C. […] Liposomal formulations based on AKG-UO-1 and 0-11769 ionizable cationic lipids (Table 5) were prepared by combining lipid mixtures of desired composition in 1 mL ethanol with 3 mL 6.25 mM sodium acetate, pH 5.0 at 6 mL/min on a NanoAssemblr (Precision Nanosystems). 3.6 mL of the mixture was retained, while the initial 0.35 mL of the mixture and final 0.05 mL were discarded. Ethanol was removed by buffer exchange into PBS, pH 7.4 by concentrating each liposome preparation using an Aminon-Ultra 4 centrifugal concentrator at 500 g for 10 min at 4° C. and diluting back to the original volume with PBS. This cycle was repeated multiple times until the ethanol concentration was <1%. Finally, liposomes were sterile filtered through 0.2 μm PES (Nalgene) syringe filters and size measured by a ZetaSizer (Malvern).
# Aliquots of the liposomal formulations were stored at −80° C. and thawed before the experiment. A combined stock in water of 10% H2O2 (Sigma-Aldrich, cat #H1009) and 1 mM of Fe(III)Cl (Sigma-Aldrich, cat #372870) was freshly prepared prior to the treatment. To make 1% final concentration of H2O2 and 100 μM Fe(III)Cl, 10 μl of 10% H2O2/1 mM Fe(III)Cl stock was added to 90 μl of both liposomal formulations and individual lipids The liposomes and individual lipids were incubated with H2O2/Fe(III)Cl at 37° C. and then 5 μl from each sample was taken at different time points (0, 3, 24, 48 and 72 hours) and dissolved in 90 μl of MeOH for HPLC analysis. Degradation of the main lipid peak was analyzed using Thermo Scientific Vanquish Flex UHPLC occupied with Charged Aerosol Detector (CAD) and Thermo Scientific Accucore™ C18+ UHPLC column (L=50 mm, D=2.1 mm, Particle Size=1.5 μm).
# The data are presented as a percentage of the main lipid peak measured at different time points relative to the lipid peak measured at time zero.
# [5] = system: MutuDC1940 cells; experiment: Transfection efficiency of mCherry mRNA LNPs in murine dendritic cells; format: cell-based; conditions: LNPs 1 μg/mL, 24h
# Experimental: A. Cell Propagation, Transfection, Harvesting and Staining Protocol
# • 1. MutuDC1940 cells (ABM) were grown according to supplier's instructions in T75 flasks.
# When required, they were plated at 180,000 cells/well into 24-well plate one day prior to transfection. • 2. LNPs were added in triplicate to each well at 1 μg/mL in 1 mL media and after 24h the cells were washed once with DPBS (VWR 02-0119-1000). • 3. 0.2 mL of DPBS (plus 5 mM EDTA, pH 7.4) was then added to facilitate detachment. • 4. The cells were placed at 37° C. for 3 min, until detached. • 5. 0.5 ml DPBS added to each well and the liquid transferred to a flow cytometry tube (Falcon 5 mL #352054) • 6. The tube was centrifuged at 1100 rpm for 3-5 min and the liquid poured off • 7. 100 μL of Zombie Violet (Biolegend) (diluted 1:500 in PBS) was added to each tube • 8. The tubes were gently tapped to resuspend cells and placed in the dark for 15 min at RT • 9. To the cells 0.5 mL of (paraformaldehyde 4% in PBS:DPBS 1:1) was added and the cells flicked gently to resuspend and put on ice for 30 min. Another 2 ml PBS was added. • 10. The cells were pelleted as above and resuspended in 0.5 mL DPBS with 5% BSA and placed in the fridge until needed. B. Cell Analysis • 1. Cells suspensions were analyzed by an Attune NxT flow cytometer using the VL1 and YL2 for live/dead and mCherry fluorescence signals respectively. Gating analysis was performed on FloJo software.
Structure (SMILES),Particle Size (nm) ([1]; Table 4),Particle Size (nm) Post-Freeze/Thaw [1],"Zeta Potential mV, pH 5 [2]","Zeta Potential mV, pH 7 [2]",Encapsulation Efficiency (%) [3],degradation after 48 hours of incubation with hydrogen peroxide [4],"% of parent lipid peak at time 0, 24 h ([4]; ICL lipid suspensions)","% of parent lipid peak at time 0, 48 h ([4]; ICL lipid suspensions)","% of parent lipid peak at time 0, 72 h ([4]; ICL lipid suspensions)","% of parent lipid peak at time 0, 72 h ([4]; Liposome preparations)",Particle Size (nm) ([1]; Table 3),Polydispersity Index PDI ([1]; Table 3),% Encapsulation ± SD [3],stability under accelerated oxidation with hydrogen peroxide [4],fold higher mCherry expression than KC2 ([5]; relative to KC2 LNP),fold higher mCherry expression than KC3 ([5]; relative to KC3 LNP),fold higher mCherry expression than LNPs incorporating 0-11769 ([5]; relative to 0-11769 LNP)
CCCCCCCC/C=C\CCCCCCCC(=O)OC[C@H](CCN(C)C)OC(=O)CCCCCCC/C=C\CCCCCCCC [AKG-DM2-OA],77.6 nm,111.5 nm,19.1 mV,2.2 mV,64.9 ± 3.4%,,,,,,,,,,,,
"CCCCC/C=C\CCCC/C=C\CCCCC(=O)OC[C@H](CCN(CC)CC)OC(=O)CCCC/C=C\CCCC/C=C\CCCCC [AKG-UO1A, (S)-4-(diethylamino)butane-1,2-diyl (6Z,6′Z,12Z,12′Z)-bis(octadeca-6,12-dienoate)]",84.4 nm,103.2 nm,28.0 mV,−0.9 mV,77.5 ± 0.9%,,,,,,,,,,,,
"CCCCC/C=C\C/C=C\CCCCCCCC(=O)OC[C@H](CCN(C)C)OC(=O)CCCCCCC/C=C\C/C=C\CCCCC [Compound O-11769, reference compound]",83.0 nm,89.6 nm,17.1 mV,4.1 mV,87.5 ± 2.7%,fully degraded,31 ± 0.9%,1 ± 0.2%,0.3 ± 0.1%,3.9±0.06%,,,,,,,
"CCCCCCCC/C=C\CCCCCCCC(=O)OC[C@H](CN(C)C)OC(=O)CCCCCCC/C=C\CCCCCCCC [DODAP, reference compound]",69.8 nm,68.2 nm,10.2 mV,−0.7 mV,83.4 ± 7.7%,,,,,,,,,,,,
"CCCCC/C=C\C/C=C\CCCCCCCCC1(CCCCCCCC/C=C\C/C=C\CCCCC)OCC(CCN(C)C)O1 (centres unmarked) [KC2, reference compound]",,,,,,fully degraded,,,0 ± 0.0%,,93.7 nm,0.01,68.2 ± 3.7%,,,,
"CCCCC/C=C\CCCC/C=C\CCCCCC1(CCCCC/C=C\CCCC/C=C\CCCCC)OC[C@H](CCN(C)C)O1 [KC2-01, 2-((S)-2,2-di((6Z,12Z)-octadeca-6,12-dien-1-yl)-1,3-dioxolan-4-yl)-N,N-dimethylethan-1-amine]",,,,,,,,,,,70.7 nm,0.06,88.9 ± 1.6%,dramatically superior stability,4.4 fold,,
"CCCCC/C=C\C/C=C\CCCCCCCCC1(CCCCCCCC/C=C\C/C=C\CCCCC)OCC(CCCN(C)C)O1 (centres unmarked) [KC3, reference compound]",,,,,,fully degraded,,,0 ± 0.0%,,101.5 nm,0.23,87.0 ± 2.3%,,,,
"CCCCC/C=C\CCCC/C=C\CCCCCC1(CCCCC/C=C\CCCC/C=C\CCCCC)OC[C@H](CCCN(C)C)O1 [KC3-01, 3-((S)-2,2-di((6Z,12Z)-octadeca-6,12-dien-1-yl)-1,3-dioxolan-4-yl)-N,N-dimethylpropan-1-amine]",,,,,,,,,,,91.6 nm,0.03,88.9 ± 2.7%,dramatically superior stability,,3.4 fold,
"CCCCC/C=C\CCCC/C=C\CCCCC(=O)OC[C@H](CCN(C)C)OC(=O)CCCC/C=C\CCCC/C=C\CCCCC [UO-1, (S)-4-(dimethylamino)butane-1,2-diyl (6Z,6′Z,12Z,12′Z)-bis(octadeca-6,12-dienoate)]",98.0 nm,122.6 nm,21.9 mV,2.3 mV,75.4 ± 2.2%,,78 ± 0.6%,74 ± 0.1%,65 ± 2.5%,73±0.05%,,,,dramatically superior stability,,,4.2 fold
